≈ marks a conversion by molar mass, not a printed value. Like-named read-outs stand apart in the source and are kept apart here.
Assays:
[1] = cited from earlier work
[2] = tested on: SARS-CoV-2 virus; assay: microbe, parasite or virus in culture; format: cell-based; details: for Drug concentration that produced an undetected virus copy number: at 24, 48, and/or 72 hours' incubation; for IC50: Severe acute respiratory syndrome coronavirus 2, Vero
[3] = tested on: IL-6; assay: IL-6 level of virus-infected Vero cells (ELISA); format: cell-based
Description: (§1) To enable measurement of IL-6, IL-10 and TNF-α levels, the culture medium of the treated cells was collected in sterile micro-tubes and centrifuged at 3,500 rpm for 20 minutes. The supernatants were carefully collected and diluted with aquadest at a 1:5 volume ratio and vortexed until homogenous. The samples were deposited onto a well-plate, added to ELISA reagents (Bioassay Technology Laboratory, Shanghai, China), and incubated at 37°C for 60 minutes. Reagent substrate solution was then added to the well and incubated for ten minutes at 37°C. The samples were measured for antigen concentration using the optical density (OD) plotted into the standard curves of IL-6, IL-10, and TNF-α.

[4] = Cytotoxicity (MTT) assay of single and dual combinatory drugs; format: cell-based; details: human; for viability at 48 h, 0.2 μg/mL / viability at 48 h, 2 μg/mL / viability at 48 h, 10 μg/mL / viability at 48 h, 100 μg/mL / viability at 48 h, 400 μg/mL: read-out: Cell Viability (%)
Description: Each tablet containing drugs was triturated and mixed until homogenous. Approximately 50 mg equivalent mass of drugs were weighed and added to dimethyl sulfoxide in order to solubilize the drugs. The suspension was sonicated in a water bath for 15 minutes before being added to Rosewell Park Memorial Institute (RPMI) media, sonicated again and vortexed to mix it until homogenous. The suspension was then filtered through a polycarbonate membrane with a pore size of 0.45 μm and then a pore size of 0.22 μm under aseptic conditions. The filtrate was mixed with 10% foetal bovine serum and penicillin streptomycin before being vortexed to produce a homogenous mixture to be used as a stock solution. The samples were prepared by diluting the stock solution of each drug with RPMI complete media at an appropriate level of dilution to produce a determined concentration. The dual combinatory drugs mixtures were prepared by mixing appropriate amounts of two drug stock solutions in order to produce a final concentration at the required level. The combinatory drugs were evaluated at both constant and non-constant ratios to evaluate their effects on the cytotoxicity, including; antagonistic, synergistic, or additive. A constant ratio of the mixture was achieved by adding drug solutions at the same ratio, thereby increasing each drug concentration, to produce dose escalation. In contrast, at a non-constant ratio, a fixed determined concentration of drug was added to increased doses of other drug solution in order to produce different levels of drug concentration.
The cytotoxic concentration (CC50) of drugs was performed by means of MTT assay at the Stem Cell Research and Development Center, Universitas Airlangga using human umbilical cord mesenchymal stem cells which had been obtained from human placenta tissue as approved by the Ethical Committee of Universitas Airlangga Hospital (Certificate number 101/KEH/2019 dated January 10, 2019). The cells were prepared as the primary cell culture and used for the cytotoxicity assay because of their sensitivity to chemicals. Cells were seeded into 96-well microplates at a concentration of 1x10^3 cells/well in 100 μL Alpha Minimum Essentials Medium (α-MEM, Gibco, USA) supplemented with 10% foetal bovine serum, 1% penicillin-streptomycin and 1% amphotericin-B. The plates were then incubated in a CO2 incubator at 37°C with 5% CO2 for 24 hours, at which point, the supernatant was replaced with α-MEM containing drugs at each concentration and incubated for a further 48 hours. Approximately 25μL of 3-(4,5-Dimethylthiazol-2-yl)-2,5-diphenyl tetrazolium-bromide (MTT) reagent at a concentration of 5mg/mL was subsequently added to each well and incubated for four hours at 37°C with 5% CO2. Purple formazan crystals were formed and observed under an inverted microscope. Dimethyl sulfoxide was added to each well with the complete solubilisation of formazan crystals subsequently being observed. The greater the number of formazan crystals formed, the lower the toxicity of the samples which were read for optical density of formazan using a multi reader at a measurement wavelength of 595 nm (Promega Glomax, USA). The CC50 value was analyzed by CompuSyn software (the ComboSyn Inc., accessed from www.combosyn.com).
In this study, the cytotoxicity assay was evaluated for single and dual combinatory drugs during a period of 48 hours of drug incubation. This assay was intended to evaluate the toxicity of dual combinatory drugs on normal cells. The combination ratios were calculated taking into consideration the usual therapeutic doses and plasma peak concentrations of the drugs. To determine this cytotoxicity, the drugs were mixed at both constant and non-constant ratios.

[5] = tested on: TNF-α; assay: TNF-α level of virus-infected Vero cells (ELISA); format: cell-based
Description: as §1

[6] = tested on: IL-10; assay: IL-10 level of virus-infected Vero cells (ELISA); format: cell-based
Description: as §1

[7] = FAVIPIRAVIR-AZITHROMYCIN series
[8] = HYDROXYCHLOROQUINE-FAVIPIRAVIR series

CC[C@H]1OC(=O)[C@H](C)[C@@H](O[C@H]2C[C@@](C)(OC)[C@@H](O)[C@H](C)O2)[C@H](C)[C@@H](O[C@@H]2O[C@H](C)C[C@H](N(C)C)[C@H]2O)[C@](C)(OC)C[C@@H](C)C(=O)[C@H](C)[C@@H](O)[C@]1(C)O [CLA, Clarithromycin]
Peak Plasma Concentration ([1]; oral 250 mg Clarithromycin twice a day): 1 µg/mL | Peak Plasma Concentration ([1]; oral 500 mg Clarithromycin twice a day): 2.41 µg/mL | Virus Titer ([2]; 0.5 μg/mL, 24-h): 38.47 viral protein fg/mL | Virus Titer ([2]; 8 μg/mL, 24-h): 38.03 viral protein fg/mL | Virus Titer ([2]; 8 μg/mL, 48-h): 39.09 viral protein fg/mL | Virus Titer ([2]; 8 μg/mL, 72-h): 37.46 viral protein fg/mL | Drug concentration that produced an undetected virus copy number ([2]; MoI 0.04): 8 µg/mL | IC50 ([2]; 24h, MoI 0.04): 4.6 µg/mL (≈ 6.15 µM) | IC50 ([2]; 48h, MoI 0.04): 0.6 µg/mL (≈ 0.802 µM) | IC50 ([2]; 72h, MoI 0.04): 0.9 µg/mL (≈ 1.2 µM) | IL-6 ([3]; 0.5 μg/mL, 24-h): 15.61 ± 0.85 ng/L | IL-6 ([3]; 0.5 μg/mL, 48-h): 28.56 ± 0.62 ng/L | IL-6 ([3]; 0.5 μg/mL, 72-h): 48.22 ± 0.35 ng/L | IL-6 ([3]; 4 μg/mL, 24-h): 14.85 ± 0.51 ng/L | IL-6 ([3]; 4 μg/mL, 48-h): 30.07 ± 0.09 ng/L | IL-6 ([3]; 4 μg/mL, 72-h): 51.13 ± 0.94 ng/L | IL-6 ([3]; 8 μg/mL, 24-h): 15.61 ± 0.57 ng/L | IL-6 ([3]; 8 μg/mL, 48-h): 34.67 ± 0.50 ng/L | IL-6 ([3]; 8 μg/mL, 72-h): 64.93 ± 2.50 ng/L | IL-6 ([3]; 1, 4, 8 μg/mL, 24, 48, 72h): ↘↘ (1, 4, 8 μg/mL; 24, 48, 72h) | IL-6 (in words) ([3]; Table 5): reduced | CC50 at 48 h ([4]; LOPIRITO-CLA experiment (Fig 5), 48 hours, CompuSyn, n = 3, read-out: CC50): 2280 µg/mL | viability at 48 h, 0.2 μg/mL ([4]; LOPIRITO-CLARITHROMYCIN series): 134% | viability at 48 h, 2 μg/mL ([4]; LOPIRITO-CLARITHROMYCIN series): 92.6% | viability at 48 h, 10 μg/mL ([4]; LOPIRITO-CLARITHROMYCIN series): 79.4% | viability at 48 h, 100 μg/mL ([4]; LOPIRITO-CLARITHROMYCIN series): 92.6% | viability at 48 h, 400 μg/mL ([4]; LOPIRITO-CLARITHROMYCIN series): 74.3% | TNF-α ([5]; 0.5 μg/mL, 24-h): 20.39 ± 0.57 pg/mL | TNF-α ([5]; 0.5 μg/mL, 48-h): 426.37 ± 1.40 pg/mL | TNF-α ([5]; 0.5 μg/mL, 72-h): 612.06 ± 1.54 pg/mL | TNF-α ([5]; 4 μg/mL, 24-h): 100.04 ± 1.44 pg/mL | TNF-α ([5]; 4 μg/mL, 48-h): 404.07 ± 0.10 pg/mL | TNF-α ([5]; 4 μg/mL, 72-h): 609.56 ± 0.14 pg/mL | TNF-α ([5]; 8 μg/mL, 24-h): 43.92 ± 1.13 pg/mL | TNF-α ([5]; 8 μg/mL, 48-h): 382.62 ± 0.86 pg/mL | TNF-α ([5]; 8 μg/mL, 72-h): 609.56 ± 0.14 pg/mL | TNF-α ([5]; 24, 48, and 72 hours, cell without concentration): No effects | TNF-α levels (in words) ([5]; Table 5): no effects | IL-10 ([6]; 0.5 μg/mL, 24-h): 36.80 ± 1.13 pg/mL | IL-10 ([6]; 0.5 μg/mL, 48-h): 105.49 ± 1.32 pg/mL | IL-10 ([6]; 0.5 μg/mL, 72-h): 507.18 ± 0.00 pg/mL | IL-10 ([6]; 4 μg/mL, 24-h): 36.80 ± 0.08 pg/mL | IL-10 ([6]; 4 μg/mL, 48-h): 58.15 ± 1.41 pg/mL | IL-10 ([6]; 4 μg/mL, 72-h): 498.75 ± 0.00 pg/mL | IL-10 ([6]; 8 μg/mL, 24-h): 24.75 ± 0.58 pg/mL | IL-10 ([6]; 8 μg/mL, 48-h): 79.10 ± 0.00 pg/mL | IL-10 ([6]; 8 μg/mL, 72-h): 445.89 ± 0.07 pg/mL | IL-10 ([6]; 8 μg/mL, 48h): ↗↗ (8 μg/mL; 48h) | IL-10 levels (in words) ([6]; Table 5): increased

NC(=O)c1nc(F)c[nH]c1=O [FAVI, Favipiravir]
Virus Titer ([2]; 10 μg/mL, 48-h): 37.37 viral protein fg/mL | Virus Titer ([2]; 15 μg/mL, 24-h): 38.87 viral protein fg/mL | Drug concentration that produced an undetected virus copy number ([2]; MoI 0.04): 37.5 µg/mL | IC50 ([2]; 24h, MoI 0.04): 9.6 µg/mL (≈ 61.1 µM) | IC50 ([2]; 48h, MoI 0.04): 18.6 µg/mL (≈ 118 µM) | IC50 ([2]; 72h, MoI 0.04): < 10 µg/mL | Results (virus detection) ([2]; at the drug concentration of the same line of Table 4, MoI 0.04): 24, 48, 72h virus still detected with decreasing number | IL-6 ([3]; 10 μg/mL, 24-h): 14.09 ± 1.53 ng/L | IL-6 ([3]; 10 μg/mL, 48-h): 37.28 ± 0.37 ng/L | IL-6 ([3]; 10 μg/mL, 72-h): 60.21 ± 0.49 ng/L | IL-6 ([3]; 15 μg/mL, 24-h): 22.18 ± 1.09 ng/L | IL-6 ([3]; 15 μg/mL, 48-h): 39.75 ± 1.67 ng/L | IL-6 ([3]; 15 μg/mL, 72-h): 68.61 ± 1.04 ng/L | IL-6 ([3]; to 100 μg/mL, 48h): ↘↘ (to 100 μg/mL; 48h) | CC50 at 48 h ([4]; CC50): > 400 µg/mL | viability at 48 h, 0.2 μg/mL [4, 7]: 105% | viability at 48 h, 2 μg/mL [4, 7]: 104% | viability at 48 h, 10 μg/mL [4, 7]: 109% | viability at 48 h, 100 μg/mL [4, 7]: 110% | viability at 48 h, 400 μg/mL [4, 7]: 126% | viability at 48 h, 0.2 μg/mL [4, 8]: 92.5% | viability at 48 h, 2 μg/mL [4, 8]: 71.9% | viability at 48 h, 10 μg/mL [4, 8]: 72.4% | viability at 48 h, 100 μg/mL [4, 8]: 66.2% | viability at 48 h, 400 μg/mL [4, 8]: 66.8% | TNF-α ([5]; 10 μg/mL, 24-h): 3.09 ± 1.23 pg/mL | TNF-α ([5]; 10 μg/mL, 48-h): 416.51 ± 1.28 pg/mL | TNF-α ([5]; 10 μg/mL, 72-h): 711.37 ± 0.70 pg/mL | TNF-α ([5]; 15 μg/mL, 24-h): 98.18 ± 1.55 pg/mL | TNF-α ([5]; 15 μg/mL, 48-h): 467.47 ± 3.11 pg/mL | TNF-α ([5]; 15 μg/mL, 72-h): 725.48 ± 3.51 pg/mL | TNF-α ([5]; 10 ppm, 24h): ↘↘ (10 ppm; 24h) | IL-10 ([6]; 10 μg/mL, 24-h): 31.38 ± 1.80 pg/mL | IL-10 ([6]; 10 μg/mL, 48-h): 125.32 ± 1.57 pg/mL | IL-10 ([6]; 10 μg/mL, 72-h): 465.82 ± 0.57 pg/mL | IL-10 ([6]; 15 μg/mL, 24-h): 27.97 ± 0.29 pg/mL | IL-10 ([6]; 15 μg/mL, 48-h): 100.89 ± 1.28 pg/mL | IL-10 ([6]; 15 μg/mL, 72-h): 411.24 ± 0.24 pg/mL | IL-10 ([6]; 10, 15 μg/mL, 48, 72h): ↗↗ (10, 15 μg/mL; 48, 72h)

Reference: paper PMC8213153 (PLoS ONE, 2021)
